# Test results reported in article PMC10683761 (ACS Sensors, 2023).
# Test system: dLight1.1
# Assay: not given
# Format: cell-based, human
# Details: 10 μM compound, sensor dLight1.1, mean ± SEM, N = 40 cells
row,Structure (SMILES),response normalized to 10 μM DA stimulation [%]
1,"NCCc1c[nH]c2ccc(O)cc12 [5-HT, 5-hydroxytryptamine]",6.61 ± 0.69
2,"CC(=O)OCC[N+](C)(C)C [ACh, acetylcholine]",8.22 ± 0.58
3,"CC(C)NCC(O)c1ccc(O)c(O)c1 (centres unmarked) [Iso, isoproterenol]",8.89 ± 0.83
4,"NC[C@H](O)c1ccc(O)c(O)c1 [NE, norepinephrine]",55.06 ± 4.31
5,CN1CCc2cc(Cl)c(O)cc2[C@@H](c2ccccc2)C1 [SCH23390],8.87 ± 0.58

# Test system: dMASS^1
# Assay: not given
# Format: cell-based, human
# Details: 10 μM compound, sensor dMASS^1, mean ± SEM, N = 40 cells
row,Structure (SMILES),response normalized to 10 μM DA stimulation [%]
1,"NCCc1c[nH]c2ccc(O)cc12 [5-HT, 5-hydroxytryptamine]",3.32 ± 0.20
2,"CC(=O)OCC[N+](C)(C)C [ACh, acetylcholine]",3.61 ± 0.14
3,"CC(C)NCC(O)c1ccc(O)c(O)c1 (centres unmarked) [Iso, isoproterenol]",3.80 ± 0.21
4,"NC[C@H](O)c1ccc(O)c(O)c1 [NE, norepinephrine]",58.00 ± 3.46
5,CN1CCc2cc(Cl)c(O)cc2[C@@H](c2ccccc2)C1 [SCH23390],3.58 ± 0.16

# Test system: dMASS^1
# Assay: dMASS^1 response to 1 μM DA in presence of dopamine receptor subtype antagonists
# Format: cell-based, human
# Details: not given
row,Structure (SMILES),effect on DA-dependent response of dMASS^1
1,CCN1CCCC1CNC(=O)c1cc(S(N)(=O)=O)ccc1OC (centres unmarked) [Sulpiride],but not dMASS^1
